# Laboratory results reported in patent US20090170886A1 (Pfizer Inc, priority 2005, published 2009).
# Numbering of substitutions follows the chain as printed. Read-outs that look alike come from different tables or passages of the source.
# Assays:
# [1] = biological target: T1, hAR (human androgen receptor, baculovirus/Sf9 generated extracts) (Homo sapiens, UniProt P10275); assay: AR Binding Assay (competitive binding with 3H-DHT tracer); conditions: 1 nM 3H-DHT, one hour at 4° C., mean of multiple tests
# T1 construct: made in house; host or cells: baculovirus/Sf9 insect cells (crude extract)
# T1 sequence (P10275 1-920): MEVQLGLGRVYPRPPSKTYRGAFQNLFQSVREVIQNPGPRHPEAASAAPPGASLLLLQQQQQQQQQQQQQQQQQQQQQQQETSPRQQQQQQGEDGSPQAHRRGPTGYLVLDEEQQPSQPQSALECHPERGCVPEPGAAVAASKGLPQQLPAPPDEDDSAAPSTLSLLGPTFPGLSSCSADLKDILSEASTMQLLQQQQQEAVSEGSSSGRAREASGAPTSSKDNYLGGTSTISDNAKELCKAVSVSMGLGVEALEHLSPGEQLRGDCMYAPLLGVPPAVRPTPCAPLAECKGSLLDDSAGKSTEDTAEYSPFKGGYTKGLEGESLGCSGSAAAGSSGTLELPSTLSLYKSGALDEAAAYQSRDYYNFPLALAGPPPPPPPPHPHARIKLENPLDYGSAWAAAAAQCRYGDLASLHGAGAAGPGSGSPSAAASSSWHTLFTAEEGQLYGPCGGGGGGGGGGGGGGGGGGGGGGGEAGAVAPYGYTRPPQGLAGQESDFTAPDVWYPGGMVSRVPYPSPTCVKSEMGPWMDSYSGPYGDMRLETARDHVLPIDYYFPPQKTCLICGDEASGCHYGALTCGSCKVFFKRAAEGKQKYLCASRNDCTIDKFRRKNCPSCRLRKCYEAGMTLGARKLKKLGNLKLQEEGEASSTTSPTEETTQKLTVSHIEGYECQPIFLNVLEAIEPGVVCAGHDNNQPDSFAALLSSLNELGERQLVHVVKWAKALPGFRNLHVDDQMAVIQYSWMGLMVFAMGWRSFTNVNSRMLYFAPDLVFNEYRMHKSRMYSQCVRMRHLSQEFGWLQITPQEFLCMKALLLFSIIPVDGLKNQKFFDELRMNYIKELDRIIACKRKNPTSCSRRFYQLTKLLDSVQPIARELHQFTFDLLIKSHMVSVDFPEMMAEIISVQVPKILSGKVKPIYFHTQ
# Description: The compounds of Formula I have affinity for the androgen receptor. […] The description below describes how the assay was carried out.
# Competitive binding analysis was performed on baculovirus/Sf9 generated hAR extracts in the presence or absence of different concentrations of test agent and a fixed concentration of ^3H-dihydrotestosterone (^3H-DHT) as tracer. This binding assay method is a modification of a protocol previously described (Liao S., et. al., J. Steroid Biochem., 20:11-17, 1984). Briefly, progressively decreasing concentrations of compounds are incubated in the presence of hAR extract (Chang et al., P.N.A.S., Vol. 89, pp. 5546-5950, 1992), hydroxylapatite, and 1 nM ^3H-DHT for one hour at 4° C. Subsequently, the binding reactions are washed three times to completely remove excess unbound ^3H-DHT. hAR bound ^3H-DHT levels are determined in the presence of compounds (i.e. competitive binding) and compared to levels bound when no competitor is present (i.e. maximum binding). Compound binding affinity to the hAR is expressed as the concentration of compound at which one half of the maximum binding is inhibited. Table II below provides the results that were obtained for selected compounds (reported data is the mean of multiple tests as shown below).
# [2] = biological target: T2, androgen receptor in MDA-MB453-MMTV clone 54-19 cells (Homo sapiens, UniProt P10275); assay: AR Antagonist Cell Assay (MMTV-luciferase reporter, DHT-induced); assay type: cell-based; conditions: MDA-MB453-MMTV clone 54-19, 100 pM DHT, 17 hr; mean of multiple tests
# T2 sequence (P10275 1-920 Q868H): T1 sequence (P10275 1-920) with Q868H
# Description: The compounds ability to antagonize the effects of androgen on the androgen receptor were determined in a whole cell assay as described immediately below.
# Cell line: MDA-MB453-MMTV clone 54-19. This cell line is a stable transfected cell line with MDA-MB453 cell background (a human breast tumor cell line expressing androgen receptor). A MMTV minimal promoter containing ARE was first cloned in front of a firefly luciferase reporter gene. Then the cascade was cloned into transfection vector pUV120puro. Electroporation method was used for transfecting MDA-MB-453 cell. Puromycin resistant stable cell line was selected.
# Culture medium: DMEM (high glucose, Gibco cat #: 11960-044), 10% FBS, and 1% L-glutamine
# Plating medium: DMEM (phenol red free), 10% charcoal treated HyClone serum, 1% L-glutamine
# Assay medium: DMEM (phenol red free), 1% charcoal treated HyClone serum, 1% L-glutamine, and 1% penicillin/streptomycin
# 3× luciferase buffer: 2% beta-mercaptoethanol, 0.6% ATP, 0.0135% luciferine in cell lysis buffer
# Cells are maintained in culture medium, splitting cells when they reach 80-90% confluence. To test compounds, 10,000 cells/well are plated to opaque 96 cell culture plate in 100 ul/well plating medium, culture for overnight at 37° C. in cell culture incubator. Carefully remove plating medium, then add 80 ul/well of pre-warmed assay medium, add 10 ul/well testing compound (final concentration at) 1000 nM, 200 nM, 40 nM, 8 nM, 1.6 nM, and 0.32 nM), incubate at 37° C. for 30 minutes. Add 10 ul/well freshly prepared DHT (final concentration at 100 pM) to each well, incubate at 37° C. for 17 hr (overnight). Add 50 ul/well 3× luciferase buffer, incubate at room temperature for 5 minutes, then count on Luminometer. The fold induction over background by 100 pM DHT in the absence of testing compounds is standardized as 100% and experimental result is expressed as percentage of inhibition by testing compounds.
# The results are reported as the mean of multiple tests as described below (the numbers of tests are indicated in the footnote). ND denotes that the compound was not tested.
# [3] = hAR extract, read-out: AR Binding IC50
SMILES,"IC50 ([1]; AR Binding IC50, hAR extract) [nM]",IC50 [2] [nM],"IC50 [1, 3] [nM]"
"C[C@@H](Oc1ccc(C#N)c(C(F)(F)F)c1)c1ccccc1 [Example 3, (R)-4-(1-Phenyl-ethoxy)-2-trifluoromethyl-benzonitrile]",3,61,
"N#Cc1ccc(OCc2cccc(O)c2)cc1Cl [Example 66, 2-Chloro-4-(3-hydroxy-benzyloxy)-benzonitrile]",11,4,
"COc1cccc(CCOc2ccc(C#N)c(C(F)(F)F)c2)c1 [Example 77, 4-[2-(3-Methoxy-phenyl)-ethoxy]-2-trifluoromethyl-benzonitrile]",109,11,
"Cc1cccc(C(CC(C)C)Oc2ccc(C#N)c(C(F)(F)F)c2)n1 (stereo not drawn) [Example 85, 4-[3-Methyl-1-(6-methyl-pyridin-2-yl)-butoxy]-2-trifluoromethyl-benzonitrile]",,> 1000,167
"C[C@@H](Oc1ccc(C#N)c(C(F)(F)F)c1)c1ccccn1 [Example 36, (R)-(+)-4-(1-Pyridin-2-yl-ethoxy)-2-trifluoromethyl-benzonitrile]",54,28,
"CCCC(Oc1ccc(C#N)c(C(F)(F)F)c1)c1cccc(C)n1 (stereo not drawn) [Example 86, 4-[1-(6-Methyl-pyridin-2-yl)-butoxy]-2-trifluoromethyl-benzonitrile]",,,330
"CC(Oc1ccc(C#N)c(C(F)(F)F)c1)c1ccccc1C(F)(F)F (stereo not drawn) [Example 31, 2-Trifluoromethyl-4-[1-(2-trifluoromethyl-phenyl)-ethoxy]-benzonitrile]",,398,146
"CC(Oc1ccc(C#N)c(C(F)(F)F)c1)c1cncc(O)c1 (stereo not drawn) [Example 73, 4-[1-(5-Hydroxypyridin-3-yl)ethoxy]-2-(trifluoromethyl)benzonitrile]",,70,110
"CCC(Oc1ccc(C#N)c(C(F)(F)F)c1)c1ccccc1 (stereo not drawn) [Example 48, 4-(1-Phenyl-propoxy)-2-trifluoromethyl-benzonitrile]",38,345,
"Cc1cccc(C(C)Oc2ccc(C#N)c(C(F)(F)F)c2)c1 (stereo not drawn) [Example 28, 4-(1-m-Tolyl-ethoxy)-2-trifluoromethyl-benzonitrile]",50,573,
"CC(Oc1ccc(C#N)c(C(F)(F)F)c1)c1cccc(C(F)(F)F)c1 (stereo not drawn) [Example 32, 2-Trifluoromethyl-4-[1-(3-trifluoromethyl-phenyl)-ethoxy]-benzonitrile]",,,214
"Cc1cccc(C)c1C(C)Oc1ccc(C#N)c(Cl)c1 (stereo not drawn) [Example 63, 2-Chloro-4-[1-(2,6-dimethyl-phenyl)-ethoxy]-benzonitrile]",,,328
"CC(Cc1ccccc1)(Oc1ccc(C#N)cc1Cl)c1ccccc1 (stereo not drawn) [Example 42, 3-Chloro-4-(1-methyl-1,2-diphenyl-ethoxy)-benzonitrile]",,,377
"CC(Oc1ccc(C#N)c(C(F)(F)F)c1)c1ccc(Cl)cc1 (stereo not drawn) [Example 23, 4-[1-(4-Chloro-phenyl)-ethoxy]-2-trifluoromethyl-benzonitrile]",,,307
"C[C@@H](Oc1ccc(C#N)cc1Cl)c1ccccc1 [Example 38, (R)-3-Chloro-4-(1-phenyl-ethoxy)-benzonitrile]",281,,
"COc1ccccc1COc1ccc(C#N)c(C(F)(F)F)c1 [Example 45, 4-(2-Methoxy-benzyloxy)-2-trifluoromethyl-benzonitrile]",,> 1000,
"CCC(Oc1ccc(C#N)c(C(F)(F)F)c1)c1cccc(C)n1 (stereo not drawn) [Example 87, 4-[1-(6-Methyl-pyridin-2-yl)-propoxy]-2-trifluoromethyl-benzonitrile]",,,483
"COc1ccc(CCOc2ccc(C#N)c(C(F)(F)F)c2)cc1 [Example 76, 4-[2-(4-Methoxy-phenyl)-ethoxy]-2-trifluoromethyl-benzonitrile]",,,281
"COc1cc(OC(C)Cc2ccccc2)ccc1C#N (stereo not drawn) [Example 71A, 2-Methoxy-4-(1-methyl-2-phenyl-ethoxy)-benzonitrile]",,,306
"Cc1ccccc1C(C)Oc1ccc(C#N)c(C(F)(F)F)c1 (stereo not drawn) [Example 27, 4-(1-o-Tolyl-ethoxy)-2-trifluoromethyl-benzonitrile]",,,439
"C[C@H](Oc1ccc(C#N)cc1Cl)c1ccccc1 [Example 39, (S)-3-Chloro-4-(1-phenyl-ethoxy)-benzonitrile]",410,,
"CCC(C)(Oc1ccc(C#N)c(C(F)(F)F)c1)c1ccccc1 (stereo not drawn) [Example 47, 4-(1-Methyl-1-phenyl-propoxy)-2-trifluoromethyl-benzonitrile]",,,461
"CC(Oc1ccc(C#N)c(C(F)(F)F)c1)c1cccc(OC2CCCCO2)c1 (stereo not drawn) [Example 7, 4-{1-[3-(Tetrahydro-2H-pyran-2-yloxy)phenyl]ethoxy}-2-(trifluoromethyl)benzonitrile]",,,383
"Cc1cccc(COc2ccc(C#N)c(C(F)(F)F)c2)c1 [Example 52, 4-(3-Methyl-benzyloxy)-2-trifluoromethyl-benzonitrile]",,,302
